# Legend:
# [1] = system: BTK (217-655) error-prone mutant library; test: BTK error-prone library screening by FACS in presence of inhibitor; format: cell-based, human
# Experimental: A12 polymerase, an error-prone variant of KOD polymerase, was used for amplification to generate a pool of mutants. Vector was prepared by digestion with XhoI and XbaI. PCR product and digested vector were gel extracted and drop dialyzed in ddH2O on VSWP membranes for one hour. […] Library size was estimated by colony counts from dilution series of transformed cells plated on SD-UT agar plus 100 μg/mL G418. Sanger sequencing was carried out on 15 randomly selected clones, as well as high throughput sequencing (described below) on an aliquot of the entire sample.
# 3×10^8 cells were washed with TBS+BSA for each library and then stained with anti-His6-FITC and anti-pY-APC for 30 minutes at 4° C. Cells were washed three times to remove unbound antibody.
# [2] = system: ABL kinase error-prone mutant library; test: ABL error-prone library screening by FACS in presence of inhibitor; format: cell-based, human; details: inhibitor-treated cultures (25 μM)
# Experimental: 5×10^7 cells were washed with TBS+BSA then stained with anti-His6-FITC and anti-pY-PE for 30 minutes at 4° C. Cells were washed three times to remove unbound antibody. Wild-type ABL with and without inhibitor was used to determine the location of the sorting gates. PE+/FITC+ cells were sorted and re-sorted, then transferred to SD-UT medium for growth at 30° C. until dense, 1-2 days depending on number of cells collected (FIG. 1B).
structure (smiles),measurement,setting,value
C=CC(=O)N1CCC[C@@H](n2nc(-c3ccc(Oc4ccccc4)cc3)c3c(N)ncnc32)C1 [Ibrutinib],fraction of APC-positive cells,"[1]; 400 nM Ibrutinib-treated cultures, pre-sort round 3",40.60%
same,fraction of APC-positive cells,"[1]; 400 nM Ibrutinib-treated cultures, unsorted pool",0.7%
CC#CC(=O)N1CCC[C@H]1c1nc(-c2ccc(C(=O)Nc3ccccn3)cc2)c2c(N)nccn12 [Acalabrutinib],fraction of APC-positive cells,"[1]; 1000 μM Acalabrutinib treated cultures, pre-sort round 3 pool",23.8%
same,fraction of APC-positive cells,"[1]; 1000 μM Acalabrutinib treated cultures, unsorted pool",1.63%
Cc1ccc(C(=O)Nc2ccc(CN3CCN(C)CC3)c(C(F)(F)F)c2)cc1C#Cc1cnc2cccnn12 [Ponatinib],fraction of PE-positive cells,[2]; pre-sort 4 pool,57.9%
same,fraction of PE-positive cells,[2]; unsorted pool,0.31%

# Source: patent publication US11236380B2, “Methods for predicting kinase inhibitor resistance” (Research Development Foundation, priority 2017, dated 2022)
